Laboratory results from patent US9174948B2, “Desferrithiocin polyether analogues” (University of Florida Research Foundation, Inc., priority 2007, dated 2015).
Entries after “also recorded” stand apart in the source; their conditions may differ. Like-named read-outs stand apart in the source and are kept apart here. Marks after values point to notes of the source that are not given here.

What was measured:
[1] = Chelator tissue distribution in rodents; type: in vivo, rat (male Sprague-Dawley); details: rats, sc, 300 μmol/kg
Method: Collection of Tissue Distribution Samples from Rodents: Male Sprague-Dawley rats (250-350 g) were given a single sc injection of the monosodium salts of 6 and 9 prepared as described above at a dose of 300 μmol/kg. At times 0.5, 1, 2, and 4 h after dosing (n=3 rats per time point) the animals were euthanized by exposure to CO2 gas. Blood was obtained via cardiac puncture into vacutainers containing sodium citrate. The blood was centrifuged, and the plasma was separated for analysis. The liver, heart, kidneys, and pancreas were then removed from the animals. […] J. Med. Chem. 2006, 49, 2772-2783]. In the current study, tissues from the (S)-3′-(HO)-DADFT-PE (9) and (S)-5′-(HO)-DADFT-PE (6) treated rats were prepared for HPLC analysis by homogenizing them in 0.5 N HClO4 at a ratio of 1:3 (w/v). Then, as a rinse, CH3OH at a ratio of 1:3 (w/v) was added and the mixture was stored at −20° C. for 30 min. This homogenate was centrifuged. The supernatant was diluted with mobile phase A (95% buffer [25 mM KH2PO4, pH 3.0]/5% CH3CN), vortexed, and filtered with a 0.2 μm membrane. Analytical separation was performed on a Discovery RP Amide C16 HPLC system with UV detection at 310 nm as described previously [Bergeron, R. J., Wiegand, J., Weimar, W. R., McManis, J. S., Smith, R. E. and Abboud, K. A. Iron Chelation Promoted by Desazadesferrithiocin Analogues: An Enantioselective Barrier. Chirality 2003, 15, 593-599; Bergeron, R. J., Wiegand, J., Ratliff-Thompson, K. and Weimar, W. R. The Origin of the Differences in (R)- and (S)-Desmethyldesferrithiocin: Iron-Clearing Properties. Ann. N.Y. Acad. Sci. 1998, 850, 202-216]. Mobile phase and chromatographic conditions were as follows: solvent A, 5% CH3CN/95% buffer; solvent B, 60% CH3CN/40% buffer. The concentrations were calculated from the peak area fitted to calibration curves by nonweighted least-squares linear regression with Rainin Dynamax HPLC Method Manager software (Rainin Instrument Co.).

[2] = test system: Non-Iron-Overloaded Rodents; details: po, cited from earlier work; for Iron-Clearing Efficiency (%): rats, 300 μmol/kg, historical data
[3] = test system: Iron-Overloaded Cebus apella Primates; details: po, cited from earlier work; for Iron-Clearing Efficiency (%): Cebus apella, 150 μmol/kg, historical data
[4] = test system: kidney proximal and distal tubules; details: rats, po, 237 μmol/kg/dose twice daily (474 μmol/kg/day) for 7 days; cited from earlier work
[5] = earlier preclinical studies; cited from earlier work
[6] = molecular target: Sudlow types I and II albumin binding sites (Rattus norvegicus, UniProt P02770); experiment: Ligand-albumin binding in bile duct-cannulated rodents treated with sodium benzoate; details: rats; for Iron-Clearing Efficiency (%): chelator 300 μmol/kg po plus sodium benzoate 250 mg/kg/dose sc × 6 doses; for fold increase in ICE with sodium benzoate: chelator 300 μmol/kg po, with vs without sodium benzoate
Source text: We elected to focus on a drug that is under clinical trials with Genzyme, (S)-4′-(HO)-DADFT (1).

[7] = test system: Non-Iron-Overloaded Rodents; experiment: Chelator-induced iron clearance in non-iron-overloaded, bile duct-cannulated rats; type: in vivo, rat (male Sprague-Dawley); details: po, 300 μmol/kg, 1 vs 3, 4 vs 6, 7 vs 9
Source text: Chelator-Induced Iron Clearance in Non-Iron-Overloaded Rodents. […] J. Med. Chem. 2006, 49, 2772-2783]. Recall that iron-clearing efficiency (ICE) is defined as (net iron excretion)/(total iron-binding capacity of the chelator), expressed as a percent. The relative ICE values of compounds 1 and 2 were in keeping with their log Papp values: the more lipophilic, the larger log Papp, the more efficient the chelator. […] However, the ICE trend was in keeping with the biliary ferrokinetics (FIG. 3) and liver concentration of the chelators, for example, 3>1 (FIG. 4).
Cannulation of Bile Duct in Non-Iron-Overloaded Rats has been described previously. […]. […] The urine sample(s) was taken at 24 h intervals. Sample collection and handling are as previously described [Bergeron, R. J., Streiff, R. R., Creary, E. A., Daniels, R. D., Jr., King, W., Luchetta, G., Wiegand, J., Moerker, T. and Peter, H. H. A Comparative Study of the Iron-Clearing Properties of Desferrithiocin Analogues with Desferrioxamine B in a Cebus Monkey Model. Blood 1993, 81, 2166-2173; Bergeron, R. J., Streiff, R. R., Wiegand, J., Vinson, J. R. T., Luchetta, G., Evans, K. M., Peter, H. and Jenny, H.-B. A Comparative Evaluation of Iron Clearance Models. Ann. N.Y. Acad. Sci. 1990, 612, 378-393].
In the iron-clearing experiments, the rats were given a single 300 μmol/kg dose of drugs 1-9 orally (po).
J. Med. Chem. 1999, 42, 2432-2440].

[8] = 2:1 complex with Fe(III); cited from earlier work
[9] = listed as (S)-4′-(HO)-DADFT (1)
[10] = listed as (S)-4′-(HO)-DADFT-PE (3)

Chain of Sudlow types I and II albumin binding sites (P02770 25-608): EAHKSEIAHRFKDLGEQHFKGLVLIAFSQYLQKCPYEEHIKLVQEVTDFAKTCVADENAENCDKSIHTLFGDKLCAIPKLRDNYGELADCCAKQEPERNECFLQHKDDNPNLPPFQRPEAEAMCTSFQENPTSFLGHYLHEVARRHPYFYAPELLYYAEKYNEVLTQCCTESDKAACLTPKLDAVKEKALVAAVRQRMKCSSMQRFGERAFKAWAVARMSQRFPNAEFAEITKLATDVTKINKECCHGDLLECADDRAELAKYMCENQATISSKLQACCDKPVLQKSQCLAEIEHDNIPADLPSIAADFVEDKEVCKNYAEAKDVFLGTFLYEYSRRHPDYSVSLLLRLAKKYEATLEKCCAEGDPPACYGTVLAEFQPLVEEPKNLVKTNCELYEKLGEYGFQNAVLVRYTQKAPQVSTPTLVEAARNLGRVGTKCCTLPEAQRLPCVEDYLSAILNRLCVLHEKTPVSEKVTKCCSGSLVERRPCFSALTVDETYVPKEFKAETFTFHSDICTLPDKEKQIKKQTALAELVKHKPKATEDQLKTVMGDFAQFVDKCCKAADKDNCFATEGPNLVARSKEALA

Structure (SMILES)	kidney concentration ([1]; 0.5 h)	kidney concentration ([1]; 1 h)	kidney concentration ([1]; 4 h)	Iron-Clearing Efficiency (%) [2]	Iron-Clearing Efficiency (%) [3]	distal tubules under light microscopy [4]	proximal tubules under light microscopy [4]	toxicity / nephrotoxicity in words [5]	Iron-Clearing Efficiency (%) [6]	fold increase in ICE with sodium benzoate [6]	other results
C[C@]1(C(=O)O)CSC(c2ccc(O)cc2O)=N1 [Compound 1, (S)-2-(2,4-dihydroxyphenyl)-4,5-dihydro-4-methyl-4-thiazolecarboxylic acid]	361±56 nmol/g wet weight	179±4 nmol/g wet weight	27±7 nmol/g wet weight	1.1±0.8%	16.8±7.2%	moderate to severe vacuolization	regional, moderate to severe vacuolization in the proximal tubules, a loss of the brush border, and tubular extrusions toward the lumen	no geno- or reproductive toxicity and only mild nephrotoxicity at high doses	12.0±2.6%	10.9 fold	pancreas concentration ([1]; 4 h): undetectable; Iron-Clearing Efficiency (%) [2, 9]: 1.1 ± 0.8%; Iron-Clearing Efficiency (%) [6, 9]: 12.0 ± 2.6^b %
COCCOCCOCCOc1ccc(C2=N[C@@](C)(C(=O)O)CS2)c(O)c1 [Compound 3, (S)-4,5-dihydro-2-[2-hydroxy-4-(3,6,9-trioxadecyloxy)phenyl]-4-methyl-4-thiazolecarboxylic acid]	368±74 nmol/g wet weight	252±10 nmol/g wet weight	34±13 nmol/g wet weight	5.5±1.9%	25.4±7.4%	occasional vacuolization but were otherwise normal	indistinguishable from those of the control animals	profoundly reduced nephrotoxicity; also recorded: profoundly less nephrotoxic	8.8±2.4%	1.6 fold	ICE of the polyether relative to that of the parent ligand [7]: 500%; concentration at 0.5 h ([1]; male, Sprague-Dawley, rat, plasma, 0.5 h): 194 ± 60 µM; decrease of liver concentration from 0.5 h to 1 h [1]: 6%; liver concentration ([1]; 0.5 h): 339±35 nmol/g wet weight; drop in plasma concentration relative to 0.5 h ([1]; 1 h): 28%; drop in plasma concentration relative to 0.5 h ([1]; 2 h): 92%; kidney concentration ([1]; 2 h): 41±3 nmol/g wet weight; pancreas concentration ([1]; 2 h): ≈ 30 nmol/g wet weight; drop in plasma concentration relative to 0.5 h ([1]; 4 h): 97%; Iron-Clearing Efficiency (%) [2, 10]: 5.5 ± 1.9%; Iron-Clearing Efficiency (%) [6, 10]: 8.8 ± 2.4^c %
C[C@]1(C(=O)O)CSC(c2ncccc2O)=N1 [DFT, (S)-4,5-dihydro-2-(3-hydroxy-2-pyridinyl)-4-methyl-4-thiazolecarboxylic acid, reference compound]								severely nephrotoxic			ICE ([2]; bile duct-cannulated rodent model): 5.5%; ICE ([3]; iron-overloaded Cebus apella primate): 16%; cumulative formation constant [8]: 4e+29 M⁻¹
